Experimental data from patent US12365696B2, “Small-molecule focal adhesion kinase (FAK) inhibitors” (DANA-FARBER CANCER INSTITUTE, INC., priority 2019, dated 2025).
Read-outs that look alike come from different tables or passages of the source.

Experiments:
Test in all cases: KINOMEscan
Assay type in all cases: binding
MUSK = MUSK (Homo sapiens (Human), UniProt O15146); settings: 10000 nM, read-out: Percent Control
MAP4K2 = MAP4K2 (Homo sapiens (Human), UniProt Q12851); settings: MAP4K2, 10000 nM; read-out: Percent Control
RAF1 = RAF1 (Homo sapiens (Human), UniProt P04049); settings: RAF1, 10000 nM; read-out: Percent Control
JNK1 = JNK1 (Homo sapiens (Human), UniProt P45983); settings: JNK1, 10000 nM; read-out: Percent Control
[1] = target: ABL1(H396P)-nonphosphorylated (Homo sapiens (Human), UniProt P00519, H396P); settings: 10000 nM, read-out: Percent Control
PIK3CA(Q546K) = PIK3CA(Q546K) (Homo sapiens (Human), UniProt P42336, Q546K); settings: 10000 nM, read-out: Percent Control
CAMK2A = CAMK2A (Homo sapiens (Human), UniProt Q9UQM7); settings: 10000 nM, read-out: Percent Control
LKB1 = LKB1 (Homo sapiens (Human), UniProt Q15831); settings: LKB1, 10000 nM; read-out: Percent Control
Chain of LKB1 (Q15831 whole entry): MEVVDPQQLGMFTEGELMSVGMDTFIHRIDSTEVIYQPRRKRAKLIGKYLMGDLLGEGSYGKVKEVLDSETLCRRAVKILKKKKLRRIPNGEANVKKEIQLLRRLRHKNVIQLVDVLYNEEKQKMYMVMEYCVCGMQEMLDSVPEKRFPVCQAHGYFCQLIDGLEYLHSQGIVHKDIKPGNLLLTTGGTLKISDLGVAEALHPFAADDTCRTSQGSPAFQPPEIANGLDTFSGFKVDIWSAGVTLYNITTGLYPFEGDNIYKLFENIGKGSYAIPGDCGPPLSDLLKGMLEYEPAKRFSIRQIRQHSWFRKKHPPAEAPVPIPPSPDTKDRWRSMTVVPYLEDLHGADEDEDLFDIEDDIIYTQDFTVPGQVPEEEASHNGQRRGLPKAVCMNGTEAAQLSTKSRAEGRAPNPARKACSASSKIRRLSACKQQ

STK33 = STK33 (Homo sapiens (Human), UniProt Q9BYT3); settings: STK33, 10000 nM; read-out: Percent Control
CSNK1D = CSNK1D (Homo sapiens (Human), UniProt P48730); settings: 10000 nM, read-out: Percent Control
[2] = target: EGFR(L747-S752del, P753S) (Homo sapiens (Human), UniProt P00533, DEL747-752/P753S); settings: 10000 nM, read-out: Percent Control
CDK11 = CDK11 (Homo sapiens (Human), UniProt Q9BWU1); settings: CDK11, 10000 nM; read-out: Percent Control
PAK3 = PAK3 (Homo sapiens (Human), UniProt O75914); settings: PAK3, 10000 nM; read-out: Percent Control
Chain of PAK3 (O75914 whole entry): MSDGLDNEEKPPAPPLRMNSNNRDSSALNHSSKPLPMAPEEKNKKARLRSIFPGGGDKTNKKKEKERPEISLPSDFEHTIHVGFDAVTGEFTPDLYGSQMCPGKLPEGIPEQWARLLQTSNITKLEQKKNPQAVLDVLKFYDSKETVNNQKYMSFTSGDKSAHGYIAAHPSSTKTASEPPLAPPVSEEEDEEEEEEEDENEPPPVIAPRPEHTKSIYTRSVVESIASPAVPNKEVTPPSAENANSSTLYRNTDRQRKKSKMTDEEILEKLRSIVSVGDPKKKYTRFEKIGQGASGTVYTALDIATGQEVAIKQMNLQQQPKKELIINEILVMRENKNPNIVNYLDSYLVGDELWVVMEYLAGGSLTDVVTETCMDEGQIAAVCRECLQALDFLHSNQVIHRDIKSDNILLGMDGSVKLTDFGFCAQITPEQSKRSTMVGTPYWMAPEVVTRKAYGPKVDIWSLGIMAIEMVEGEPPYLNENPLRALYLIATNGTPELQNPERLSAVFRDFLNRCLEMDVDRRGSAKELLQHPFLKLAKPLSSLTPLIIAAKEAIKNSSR

HUNK = HUNK (Homo sapiens (Human), UniProt P57058); settings: 10000 nM, read-out: Percent Control
SRMS = SRMS (Homo sapiens (Human), UniProt Q9H3Y6); settings: 10000 nM, read-out: Percent Control
MAK = MAK (Homo sapiens (Human), UniProt P20794); settings: 10000 nM, read-out: Percent Control
Chain of MAK (P20794 whole entry): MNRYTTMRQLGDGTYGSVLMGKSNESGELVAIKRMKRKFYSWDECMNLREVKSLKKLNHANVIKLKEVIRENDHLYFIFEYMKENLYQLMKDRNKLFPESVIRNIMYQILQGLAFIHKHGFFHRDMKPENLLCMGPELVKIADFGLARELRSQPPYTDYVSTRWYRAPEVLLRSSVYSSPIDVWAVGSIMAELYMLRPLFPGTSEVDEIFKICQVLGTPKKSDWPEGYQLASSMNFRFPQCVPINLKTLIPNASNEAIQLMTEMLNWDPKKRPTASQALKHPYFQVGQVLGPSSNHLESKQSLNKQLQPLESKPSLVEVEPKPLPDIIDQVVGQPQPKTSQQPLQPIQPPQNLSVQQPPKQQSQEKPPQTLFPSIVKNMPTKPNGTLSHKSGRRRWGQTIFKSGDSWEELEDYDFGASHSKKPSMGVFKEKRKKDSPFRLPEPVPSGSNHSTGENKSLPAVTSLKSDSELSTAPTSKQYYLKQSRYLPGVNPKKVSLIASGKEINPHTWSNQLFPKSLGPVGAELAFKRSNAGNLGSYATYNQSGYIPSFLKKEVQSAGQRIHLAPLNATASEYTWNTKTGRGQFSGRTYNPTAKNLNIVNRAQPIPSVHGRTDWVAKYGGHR

[3] = target: ABL1(H396P)-phosphorylated (Homo sapiens (Human), UniProt P00519, H396P); settings: 10000 nM, read-out: Percent Control
AURKA = AURKA (Homo sapiens (Human), UniProt O14965); settings: 10000 nM, read-out: Percent Control
OSR1 = OSR1 (Homo sapiens (Human), UniProt O95747); settings: OSR1, 10000 nM; read-out: Percent Control
[4] = target: RSK1(Kin.Dom.1-N-terminal) (Homo sapiens (Human), UniProt Q15418); settings: 10000 nM, read-out: Percent Control
Chain of RSK1(Kin.Dom.1-N-terminal) (Q15418 62-321): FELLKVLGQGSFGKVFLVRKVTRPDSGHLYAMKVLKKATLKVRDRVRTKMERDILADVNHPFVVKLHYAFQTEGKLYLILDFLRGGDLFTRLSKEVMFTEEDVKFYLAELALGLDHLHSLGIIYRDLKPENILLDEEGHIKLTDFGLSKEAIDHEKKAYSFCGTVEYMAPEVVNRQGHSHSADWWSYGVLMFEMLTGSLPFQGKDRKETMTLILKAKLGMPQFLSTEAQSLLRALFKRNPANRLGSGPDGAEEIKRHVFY

EGFR(L861Q) = EGFR(L861Q) (Homo sapiens (Human), UniProt P00533, L861Q); settings: 10000 nM, read-out: Percent Control
[5] = target: (Homo sapiens (Human), UniProt P57078); settings: read-out: Percent Control
PKN2 = PKN2 (Homo sapiens (Human), UniProt Q16513); settings: PKN2, 10000 nM; read-out: Percent Control
MYO3B = MYO3B (Homo sapiens (Human), UniProt Q8WXR4); settings: 10000 nM, read-out: Percent Control
KIT(D816V) = KIT(D816V) (Homo sapiens (Human), UniProt P10721, D816V); settings: 10000 nM, read-out: Percent Control
Chain of KIT(D816V) (P10721 26-976 D816V): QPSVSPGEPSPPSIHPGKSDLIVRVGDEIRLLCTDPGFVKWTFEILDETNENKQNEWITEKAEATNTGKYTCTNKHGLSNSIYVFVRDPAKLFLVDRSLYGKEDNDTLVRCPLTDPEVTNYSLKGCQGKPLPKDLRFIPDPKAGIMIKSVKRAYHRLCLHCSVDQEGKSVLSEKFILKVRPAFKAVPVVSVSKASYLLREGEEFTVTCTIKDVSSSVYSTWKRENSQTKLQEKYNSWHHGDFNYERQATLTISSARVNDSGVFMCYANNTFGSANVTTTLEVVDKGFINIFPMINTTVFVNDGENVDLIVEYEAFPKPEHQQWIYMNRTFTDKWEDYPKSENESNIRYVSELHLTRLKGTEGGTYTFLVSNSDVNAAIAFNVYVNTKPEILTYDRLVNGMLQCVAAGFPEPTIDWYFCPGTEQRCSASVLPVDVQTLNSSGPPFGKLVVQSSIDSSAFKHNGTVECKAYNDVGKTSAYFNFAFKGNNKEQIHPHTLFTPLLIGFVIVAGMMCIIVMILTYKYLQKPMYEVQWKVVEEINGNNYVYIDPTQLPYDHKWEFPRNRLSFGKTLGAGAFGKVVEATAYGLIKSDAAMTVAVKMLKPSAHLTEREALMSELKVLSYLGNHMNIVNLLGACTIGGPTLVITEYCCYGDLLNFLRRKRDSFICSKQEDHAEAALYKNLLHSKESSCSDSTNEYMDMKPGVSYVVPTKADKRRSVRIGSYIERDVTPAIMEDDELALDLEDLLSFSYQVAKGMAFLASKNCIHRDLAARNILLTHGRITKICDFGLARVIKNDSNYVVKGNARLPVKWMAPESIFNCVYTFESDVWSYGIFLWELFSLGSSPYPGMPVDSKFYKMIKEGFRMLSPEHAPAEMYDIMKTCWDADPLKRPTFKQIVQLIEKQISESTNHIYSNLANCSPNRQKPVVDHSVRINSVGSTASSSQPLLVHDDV

SGK3 = SGK3 (Homo sapiens (Human), UniProt Q96BR1); settings: SGK3, 10000 nM; read-out: Percent Control
[6] = target: RSK3(Kin.Dom.2-C-terminal) (Homo sapiens (Human), UniProt Q15349); settings: 10000 nM, read-out: Percent Control
[7] = target: RPS6KA5(Kin.Dom.2-C-terminal) (Homo sapiens (Human), UniProt O75582); settings: 10000 nM, read-out: Percent Control
Chain of RPS6KA5(Kin.Dom.2-C-terminal) (O75582 426-687): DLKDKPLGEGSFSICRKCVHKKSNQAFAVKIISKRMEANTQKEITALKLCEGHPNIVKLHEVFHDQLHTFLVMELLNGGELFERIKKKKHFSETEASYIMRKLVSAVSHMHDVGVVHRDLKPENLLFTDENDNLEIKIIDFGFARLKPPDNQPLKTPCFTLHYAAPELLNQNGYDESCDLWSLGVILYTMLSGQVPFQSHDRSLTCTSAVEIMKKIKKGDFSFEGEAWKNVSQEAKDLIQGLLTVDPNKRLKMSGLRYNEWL

GCN2(Kin.Dom.2, S808G) = GCN2(Kin.Dom.2, S808G) (Homo sapiens (Human), UniProt Q9P2K8, S808G); settings: 10000 nM, read-out: Percent Control
Chain of GCN2(Kin.Dom.2, S808G) (Q9P2K8 590-1001 S808G): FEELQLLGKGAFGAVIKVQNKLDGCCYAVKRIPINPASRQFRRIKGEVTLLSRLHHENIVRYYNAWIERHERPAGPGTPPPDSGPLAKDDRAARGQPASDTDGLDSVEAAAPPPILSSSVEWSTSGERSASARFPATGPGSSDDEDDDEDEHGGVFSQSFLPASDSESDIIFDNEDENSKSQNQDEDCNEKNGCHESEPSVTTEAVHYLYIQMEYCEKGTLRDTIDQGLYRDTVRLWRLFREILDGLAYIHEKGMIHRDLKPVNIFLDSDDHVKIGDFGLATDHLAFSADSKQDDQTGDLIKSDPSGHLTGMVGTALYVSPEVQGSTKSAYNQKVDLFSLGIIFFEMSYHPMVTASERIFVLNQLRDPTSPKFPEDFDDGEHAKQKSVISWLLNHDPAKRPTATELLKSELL

HASPIN = HASPIN (Homo sapiens (Human), UniProt Q8TF76); settings: 10000 nM, read-out: Percent Control
CDK4 = CDK4 (Homo sapiens (Human), UniProt P11802); settings: CDK4, 10000 nM; read-out: Percent Control
NEK11 = NEK11 (Homo sapiens (Human), UniProt Q8NG66); settings: NEK11, 10000 nM; read-out: Percent Control
Chain of NEK11 (Q8NG66 whole entry): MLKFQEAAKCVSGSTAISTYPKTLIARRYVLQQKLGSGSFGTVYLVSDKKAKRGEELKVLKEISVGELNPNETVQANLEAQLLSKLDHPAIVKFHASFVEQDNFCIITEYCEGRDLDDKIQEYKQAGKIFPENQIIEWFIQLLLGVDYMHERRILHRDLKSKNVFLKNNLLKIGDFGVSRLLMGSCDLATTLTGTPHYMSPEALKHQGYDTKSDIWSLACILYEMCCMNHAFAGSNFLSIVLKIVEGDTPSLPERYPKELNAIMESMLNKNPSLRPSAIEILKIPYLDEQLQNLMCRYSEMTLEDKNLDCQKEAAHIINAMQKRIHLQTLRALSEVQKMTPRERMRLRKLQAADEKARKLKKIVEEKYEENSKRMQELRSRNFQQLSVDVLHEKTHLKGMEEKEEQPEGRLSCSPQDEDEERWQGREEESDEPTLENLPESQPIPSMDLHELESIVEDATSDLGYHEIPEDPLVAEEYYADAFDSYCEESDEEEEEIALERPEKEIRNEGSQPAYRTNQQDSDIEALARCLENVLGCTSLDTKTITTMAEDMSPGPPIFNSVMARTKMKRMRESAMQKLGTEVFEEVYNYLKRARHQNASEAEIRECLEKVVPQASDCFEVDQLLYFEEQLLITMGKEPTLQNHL

FGFR3 = FGFR3 (Homo sapiens (Human), UniProt P22607); settings: FGFR3, 10000 nM; read-out: Percent Control
RIPK5 = RIPK5 (Homo sapiens (Human), UniProt Q6XUX3); settings: RIPK5, 10000 nM; read-out: Percent Control

Chain of MUSK (O15146 24-869): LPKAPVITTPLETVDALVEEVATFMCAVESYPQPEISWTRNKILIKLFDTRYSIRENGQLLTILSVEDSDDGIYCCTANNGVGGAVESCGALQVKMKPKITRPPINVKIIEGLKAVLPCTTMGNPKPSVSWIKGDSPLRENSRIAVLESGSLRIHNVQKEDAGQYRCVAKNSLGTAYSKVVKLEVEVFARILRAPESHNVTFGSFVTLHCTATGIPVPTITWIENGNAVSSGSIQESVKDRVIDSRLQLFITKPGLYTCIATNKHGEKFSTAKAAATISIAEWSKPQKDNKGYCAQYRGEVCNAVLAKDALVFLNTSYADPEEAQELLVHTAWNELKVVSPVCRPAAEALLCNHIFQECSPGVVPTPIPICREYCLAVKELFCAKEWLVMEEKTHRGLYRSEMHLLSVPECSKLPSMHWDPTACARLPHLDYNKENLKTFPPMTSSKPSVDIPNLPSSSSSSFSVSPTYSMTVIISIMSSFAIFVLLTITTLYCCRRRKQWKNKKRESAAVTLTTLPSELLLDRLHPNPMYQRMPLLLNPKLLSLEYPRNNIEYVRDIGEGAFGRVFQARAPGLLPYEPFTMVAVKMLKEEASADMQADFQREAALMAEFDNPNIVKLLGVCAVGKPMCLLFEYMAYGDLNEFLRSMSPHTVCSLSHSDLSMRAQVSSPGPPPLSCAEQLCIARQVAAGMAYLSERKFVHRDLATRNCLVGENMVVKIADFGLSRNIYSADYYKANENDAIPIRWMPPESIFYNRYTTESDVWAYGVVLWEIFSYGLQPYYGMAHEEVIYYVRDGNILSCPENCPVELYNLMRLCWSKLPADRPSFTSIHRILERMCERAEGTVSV

SMILES | remaining binding at 10 µM (MUSK) [%] | remaining binding at 10 µM (MAP4K2) [%] | remaining binding at 10 µM (RAF1) [%] | remaining binding at 10 µM (JNK1) [%] | remaining binding at 10 µM [1] [%] | remaining binding at 10 µM (PIK3CA(Q546K)) [%] | remaining binding at 10 µM (CAMK2A) [%] | remaining binding at 10 µM (LKB1) [%] | remaining binding at 10 µM (STK33) [%] | remaining binding at 10 µM (CSNK1D) [%] | remaining binding at 10 µM [2] [%] | remaining binding at 10 µM (CDK11) [%] | remaining binding at 10 µM (PAK3) [%] | remaining binding at 10 µM (HUNK) [%] | remaining binding at 10 µM (SRMS) [%] | remaining binding at 10 µM (MAK) [%] | remaining binding at 10 µM [3] [%] | remaining binding at 10 µM (AURKA) [%] | remaining binding at 10 µM (OSR1) [%] | remaining binding at 10 µM [4] [%] | also measured
COc1cc(N2CCC(N3CCN(C)CC3)CC2)ccc1Nc1ncc2c(n1)N(C)c1sc(C)nc1C(=O)N2 [Compound 3, 6-((2-methoxy-4-(4-(4-methylpiperazin-1-yl)piperidin-1-yl)phenyl)amino)-2,4-dimethyl-4,9-dihydro-10H-pyrimido[5,4-b]thiazolo[5,4-e][1,4]diazepin-10-one] | 92 | 100 | 85 | 100 | 4.3 | 100 | 76 | 44 | 84 | 54 | 99 | 71 | 78 | 95 | 78 | 71 | 19 | 92 | 100 | 78 | remaining binding at 10 µM (EGFR(L861Q)): 38%; remaining binding at 10 µM ([5]; PIPK4, 10000 nM): 100%; remaining binding at 10 µM (PKN2): 100%; remaining binding at 10 µM (MYO3B): 74%; remaining binding at 10 µM (KIT(D816V)): 11%; remaining binding at 10 µM (SGK3): 100%; remaining binding at 10 µM [6]: 84%; remaining binding at 10 µM [7]: 72%; remaining binding at 10 µM (GCN2(Kin.Dom.2, S808G)): 88%; remaining binding at 10 µM (HASPIN): 96%; remaining binding at 10 µM (CDK4): 100%; remaining binding at 10 µM (NEK11): 100%; remaining binding at 10 µM (FGFR3): 92%; remaining binding at 10 µM (RIPK5): 100%
COc1cc(N2CCC(N3CCN(C)CC3)CC2)ccc1Nc1ncc2c(n1)N(C)c1sc(C)nc1C(=O)N2C [Compound 5, 6-((2-methoxy-4-(4-(4-methylpiperazin-1-yl)piperidin-1-yl)phenyl)amino)-2,4,9-trimethyl-4,9-dihydro-10H-pyrimido[5,4-b]thiazolo[5,4-e][1,4]diazepin-10-one] | 100 | 94 | 95 | 100 | 100 | 94 | 100 | 100 | 10 | 87 | 91 | 90 | 92 | 97 | 97 | 100 | 100 | 78 | 100 | 83 | remaining binding at 10 µM (EGFR(L861Q)): 100%; remaining binding at 10 µM ([5]; RIPK4, 10000 nM): 100%; remaining binding at 10 µM (PKN2): 100%; remaining binding at 10 µM (MYO3B): 100%; remaining binding at 10 µM (KIT(D816V)): 100%; remaining binding at 10 µM (SGK3): 100%; remaining binding at 10 µM [6]: 31%; remaining binding at 10 µM [7]: 63%; remaining binding at 10 µM (GCN2(Kin.Dom.2, S808G)): 94%; remaining binding at 10 µM (HASPIN): 89%; remaining binding at 10 µM (CDK4): 100%; remaining binding at 10 µM (NEK11): 100%; remaining binding at 10 µM (FGFR3): 98%; remaining binding at 10 µM (RIPK5): 60%
